Some test systems named below: XF498; RXF 393; SN12C; HOP-18; SF-539; HT-29; KM-20L2; SF-295; DMS-114; HCT-116; SF-268; HCT-15; HCC 2998; ACHN; HOP-92; M19-MEL; UACC-257; NCI-H460.
Test in all cases: DTP human tumour cell line panel, 48 h

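The compound was tested at five concentrations on cells cultured in 96-well plates, with a 48-hour exposure period. GI50: concentration for 50% inhibition of growth.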 Activity calls are given as the source filed them. Cut-off read from the data, not from the text of the source: active = GI50 up to about 1.1 µM and inactive = higher.

Turning to `COc1ccc(C23C(=O)c4ccccc4N2O[C@H]2C(=O)N(c4ccccc4)C(=O)[C@H]23)cc1` (some centres undefined), the GI50 in the assay on XF498, with RXF 393, in the assay on SN12C, in the assay with HOP-18, with SF-539 and in the assay with HT-29 was > 100 µM (inactive) each time. Moreover, the GI50 (in general, the concentration at which growth is held to half of that of the control) with KM-20L2 is > 100 µM (inactive); with SF-295, > 100 µM (inactive); in the assay on DMS-114, > 100 µM (inactive); in the assay with HCT-116, > 100 µM (inactive); in the assay with SF-268, > 100 µM (inactive); in the assay on HCT-15, greater than 100 µM. In addition, the GI50 in the assay on HCC 2998, in the assay with ACHN, with HOP-92, in the assay on M19-MEL, with UACC-257 and in the assay on NCI-H460 was > 100 µM (inactive) in each case.

Regarding `O=C(O)c1cc2c3c(c1)[C@H]1C=CC[C@H]1CN3CC1CC=CC21` (some centres undefined), the GI50 with XF498, in the assay on RXF 393, in the assay with SN12C, with HOP-18, with SF-539 and in the assay on HT-29 was > 100 µM (inactive) each time. Besides, the GI50 with KM-20L2 was > 100 µM (inactive); with SF-295, > 100 µM (inactive); with DMS-114, > 100 µM (inactive); in the assay on HCT-116, > 100 µM (inactive); with SF-268, > 100 µM (inactive); in the assay on HCT-15, greater than 100 µM. The GI50 in the assay on HCC 2998, in the assay on ACHN, in the assay on HOP-92, in the assay with M19-MEL, in the assay with UACC-257 and in the assay with NCI-H460 was > 100 µM (inactive) throughout.

`CCCCCC1CC(C(C)=O)CN1c1ccc(F)cc1` (centres undefined): the GI50 in the assay on XF498 was 21.1 µM (inactive); with RXF 393 it was 41 µM (inactive); in the assay with SN12C it was 48.5 µM (inactive); in the assay with HOP-18 it was 13.1 µM (inactive); in the assay on SF-539, > 100 µM (inactive); in the assay on HT-29, 30.8 µM (inactive). Moreover, the GI50 is 35.3 µM (inactive) with KM-20L2; 21.2 µM (inactive) in the assay with SF-295; 20.3 µM (inactive) in the assay on DMS-114; 27.1 µM (inactive) in the assay with HCT-116; 32 µM (inactive) with SF-268; 52.8 µM in the assay on HCT-15. For the same molecule, the GI50 in the assay on HCC 2998 is 38.1 µM (inactive); in the assay with ACHN it was 26.9 µM (inactive); in the assay with HOP-92, 27.9 µM (inactive); in the assay on M19-MEL, 39.7 µM (inactive); in the assay on UACC-257 it was 30.5 µM (inactive); with NCI-H460, 44.4 µM (inactive).

Values taken from ChEMBL document CHEMBL1201862, “PubChem BioAssay data set” (2004).
